Measurements as given in patent US20070037817A1, “Acetylenic piperazines as metabotropic glutamate receptor antagonists” (AstraZeneca AB, priority 2005, published 2007).

Target: T1, human mGluR5d (Homo sapiens, UniProt P41594)
T1 construct: expressed in transfected cells; host or cells: GHEK (HEK cells expressing a glutamate transporter) for the IP3 assay
Test: Functional assessment of mGluR5 antagonism in cell lines expressing mGluR5d (FLIPR [Ca2+]i mobilization assay / IP3 turnover assay; assay behind the values not specified)
Format: cell-based
Conditions: assays described herein (FLIPR or IP3), cells expressing human mGluR5d
Description: The pharmacological properties of the compounds of the invention can be analyzed using standard assays for functional activity. Examples of glutamate receptor assays are well known in the art as described in for example Aramori et al., Neuron 8:757 (1992), Tanabe et al., Neuron 8:169 (1992), Miller et al., J. Neuroscience 15: 6103 (1995), Balazs, et al., J Neurochemistry 69:151 (1997). The methodology described in these publications is incorporated herein by reference. Conveniently, the compounds of the invention can be studied by means of an assay that measures the mobilization of intracellular calcium, [Ca^2+]i in cells expressing mGluR5.
Intracellular calcium mobilization was measured by detecting changes in fluorescence of cells loaded with the fluorescent indicator fluo-3. Fluorescent signals were measured using the FLIPR system (Molecular Devices). A two addition experiment was used that could detect compounds that either activate or antagonize the receptor.
For FLIPR analysis, cells expressing human mGluR5d were seeded on collagen coated clear bottom 96-well plates with black sides and analysis of [Ca^2+]i mobilization was done 24 hours after seeding.
FLIPR experiments were done using a laser setting of 0.800 W and a 0.4 second CCD camera shutter speed. Each FLIPR experiment was initiated with 160 μL of buffer present in each well of the cell plate. After each addition of the compound, the fluorescence signal was sampled 50 times at 1 second intervals followed by 3 samples at 5 second intervals. Responses were measured as the peak height of the response within the sample period.
EC50 and IC50 determinations were made from data obtained from 8-point concentration response curves (CRC) performed in duplicate. Agonist CRC were generated by scaling all responses to the maximal response observed for the plate. Antagonist block of the agonist challenge was normalized to the average response of the agonist challenge in 14 control wells on the same plate.
We have validated a secondary functional assay for mGluR5d based on Inositol Phosphate (IP3) turnover. IP3 accumulation is measured as an index of receptor mediated phospholipase C turnover. GHEK cells stably expressing the human mGluR5d receptors were incubated with [3H] myo-inositol overnight, washed three times in HEPES buffered saline and pre-incubated for 10 min. with 10 mM LiCl. Compounds (agonists) were added and incubated for 30 min. at 37° C. Antagonist activity was determined by pre-incubating test compounds for 15 min., then incubating in the presence of glutamate (80 μM) or DHPG (30 μM) for 30 min. Reactions were terminated by the addition of perchloric acid (5%). Samples were collected and neutralized, and inositol phosphates were separated using Gravity-Fed Ion-Exchange Columns.
Functional assessment of mGluR5 Antagonism in Cell Lines Expressing mGluR5D
The properties of the compounds of the invention can be analyzed using standard assays for pharmacological activity. Examples of glutamate receptor assays are well known in the art as described in for example Aramori et al., Neuron 8:757 (1992), Tanabe et al., Neuron 8:169 (1992), Miller et al., J. Neuroscience 15: 6103 (1995), Balazs, et al., J. Neurochemistry 69:151 (1997). The methodology described in these publications is incorporated herein by reference. Conveniently, the compounds of the invention can be studied by means of an assay (FLIPR) that measures the mobilization of intracellular calcium, [Ca^2+]i in cells expressing mGluR5 or another assay (IP3) that measures inositol phosphate turnover.
Cells expressing human mGluR5d as described in WO97/05252 are seeded at a density of 100,000 cells per well on collagen coated clear bottom 96-well plates with black sides and experiments are done 24 h following seeding. All assays are done in a buffer containing 127 mM NaCl, 5 mM KCl, 2 mM MgCl2, 0.7 mM NaH2PO4, 2 mM CaCl2, 0.422 mg/ml NaHCO3, 2.4 mg/ml HEPES, 1.8 mg/ml glucose and 1 mg/ml BSA Fraction IV (pH 7.4). […]

T1 sequence (P41594 21-942 isoform P41594-3 limits assumed): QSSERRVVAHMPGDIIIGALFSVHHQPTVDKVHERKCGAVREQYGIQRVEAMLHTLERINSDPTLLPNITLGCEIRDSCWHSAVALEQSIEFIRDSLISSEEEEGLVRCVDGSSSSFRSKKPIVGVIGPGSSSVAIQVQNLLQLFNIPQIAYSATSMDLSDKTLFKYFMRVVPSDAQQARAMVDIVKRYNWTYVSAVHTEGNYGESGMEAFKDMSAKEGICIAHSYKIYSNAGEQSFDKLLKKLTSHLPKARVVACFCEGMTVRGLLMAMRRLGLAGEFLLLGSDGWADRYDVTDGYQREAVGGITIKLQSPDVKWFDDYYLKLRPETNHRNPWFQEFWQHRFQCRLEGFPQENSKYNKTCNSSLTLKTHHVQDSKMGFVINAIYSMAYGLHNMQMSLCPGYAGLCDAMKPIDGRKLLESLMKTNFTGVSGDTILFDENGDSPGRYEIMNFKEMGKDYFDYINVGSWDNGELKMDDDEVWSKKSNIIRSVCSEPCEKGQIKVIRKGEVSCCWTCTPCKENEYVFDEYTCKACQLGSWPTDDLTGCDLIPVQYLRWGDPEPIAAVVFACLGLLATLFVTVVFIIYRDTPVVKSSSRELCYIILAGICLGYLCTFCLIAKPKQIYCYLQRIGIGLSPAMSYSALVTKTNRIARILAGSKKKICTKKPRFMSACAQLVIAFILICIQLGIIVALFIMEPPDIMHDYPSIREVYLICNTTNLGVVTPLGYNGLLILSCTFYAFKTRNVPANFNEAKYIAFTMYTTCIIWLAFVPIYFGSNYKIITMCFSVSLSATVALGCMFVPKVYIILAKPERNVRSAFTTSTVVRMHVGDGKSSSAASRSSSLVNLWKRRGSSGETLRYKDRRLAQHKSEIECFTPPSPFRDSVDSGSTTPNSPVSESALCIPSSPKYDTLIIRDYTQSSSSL

IC50 | Compound
0.083 µM | N#Cc1cc(F)cnc1N1CCN2[C@@H](CCC[C@@H]2C#Cc2ccccn2)C1 (racemic) [Example 18.7, (±)-5-fluoro-2-[(6R,9aS)-6-(pyridin-2-ylethynyl)octahydro-2H-pyrido [1,2-a]pyrazin-2-yl]nicotinonitrile]
0.02 µM | N#Cc1cccc(C#C[C@H]2CCC[C@H]3CN(c4ncccc4C#N)CCN32)c1 (racemic) [Example 18.3, (±)-2-{(6R,9aS)-6-[(3-cyanophenyl)ethynyl]octahydro-2H-pyrido[1,2-a]pyrazin-2-yl}nicotinonitrile]
0.439 µM | N#Cc1nccnc1N1CCN2[C@@H](CC[C@@H]2C#Cc2nccs2)C1 (racemic) [Example 14.26, (±)-3-[(6R,8aS)-6-(1,3-thiazol-2-yl-ethynyl)hexahydropyrrolo[1,2-a]pyrazin-2(1H)-yl]pyrazine-2-carbonitrile]

Continued, molecule first:

Compound | IC50
COC(=O)c1cccnc1N1CCN2[C@@H](CC[C@@H]2C#Cc2cccc(Cl)c2)C1 (racemic) [Example 13.12, (±)-methyl 2-[(6R,8aS)-6-[(3-chloro-phenyl)ethynyl]hexahydropyrrolo[1,2-a]pyrazin-2(1H)-yl]nicotinate] | 0.023 µM
CCOC(=O)N1CCN2[C@@H](CC[C@H]2C#Cc2cccc(Cl)c2)C1 [Example 12.3, ethyl (6S,8aS)-6-[(3-chloro-phenyl)ethynyl]hexahydropyrrolo[1,2-a]pyrazine-2(1H)-carboxylate] | 0.187 µM
N#Cc1ccc(N2CCN3[C@@H](CC[C@H]3C#Cc3cccc(Cl)c3)C2)nc1 [Example 13.3, 6-[(6S,8aS)-6-[(3-chlorophenyl)ethynyl]hexahydropyrrolo[1,2-a]pyrazin-2(1H)-yl]nicotinonitrile] | 0.486 µM
